# Values quoted from earlier work, collected in patent publication US9505976B2, “Excitation-dependent fluorescent organic nanoparticles” (National Kaohsiung Normal University, priority 2013, dated 2016).
# Details: in ethanol
structure (smiles),measurement,value
"CCN(CC)c1ccc2c(C)cc(=O)oc2c1 [coumarin 1, 7-diethylamino-4-methylcoumarin]",quantum yield of reference,73%
